Reference: publication PMC12372887, “Mechanism and cellular actions of the potent AMPK inhibitor BAY-3827” (Science Advances, 2025)

Columns and labels:
Assay in all cases: Kinase panel (140 human kinases)
Format in all cases: biochemical
[1] = target: EPH-A4 (Homo sapiens, UniProt P54764)
Procedure, shortened: (§1)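 Single-point profiling at 0.1 μM; BAY-3827 also at 1 μM. ^33P-ATP radiometric filter-binding format, duplicates. ATP 5/20/50 μM (≤ Km for each enzyme). Readout: % residual activity, mean ± SD.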

[2] = target: MPSK1 (Homo sapiens, UniProt O75716)
Procedure, shortened: as §1

[3] = target: ZAP70 (Homo sapiens, UniProt P43403)
Procedure, shortened: as §1

[4] = target: MINK1 (Homo sapiens, UniProt Q8N4C8)
Procedure, shortened: as §1

[5] = target: PKBa (Homo sapiens, UniProt P31749)
Procedure, shortened: as §1

[6] = target: SGK1 (Homo sapiens, UniProt O00141)
Procedure, shortened: as §1

[7] = target: NEK2a (Homo sapiens, UniProt P51955)
Procedure, shortened: as §1

[8] = target: EPH-B2 (Homo sapiens, UniProt P29323)
Procedure, shortened: as §1

[9] = target: JNK3 (Homo sapiens, UniProt P53779)
Procedure, shortened: as §1

[10] = target: HIPK3 (Homo sapiens, UniProt Q9H422)
Procedure, shortened: as §1

[11] = target: PKCa (Homo sapiens, UniProt P17252)
Procedure, shortened: as §1

[12] = target: MSK1 (Homo sapiens, UniProt O75582)
Procedure, shortened: as §1

[13] = target: p38b MAPK (Homo sapiens, UniProt Q15759)
Procedure, shortened: as §1

[14] = target: EPH-B1 (Homo sapiens, UniProt P54762)
Procedure, shortened: as §1

[15] = target: FGF-R1 (Homo sapiens, UniProt P11362)
Procedure, shortened: as §1

[16] = target: MLK1 (Homo sapiens, UniProt P80192)
Procedure, shortened: as §1

[17] = target: ABL (Homo sapiens, UniProt P00519)
Procedure, shortened: as §1

[18] = target: T1, BRSK2 (Homo sapiens, UniProt Q8IWQ3)
T1 sequence (Q8IWQ3 1-736): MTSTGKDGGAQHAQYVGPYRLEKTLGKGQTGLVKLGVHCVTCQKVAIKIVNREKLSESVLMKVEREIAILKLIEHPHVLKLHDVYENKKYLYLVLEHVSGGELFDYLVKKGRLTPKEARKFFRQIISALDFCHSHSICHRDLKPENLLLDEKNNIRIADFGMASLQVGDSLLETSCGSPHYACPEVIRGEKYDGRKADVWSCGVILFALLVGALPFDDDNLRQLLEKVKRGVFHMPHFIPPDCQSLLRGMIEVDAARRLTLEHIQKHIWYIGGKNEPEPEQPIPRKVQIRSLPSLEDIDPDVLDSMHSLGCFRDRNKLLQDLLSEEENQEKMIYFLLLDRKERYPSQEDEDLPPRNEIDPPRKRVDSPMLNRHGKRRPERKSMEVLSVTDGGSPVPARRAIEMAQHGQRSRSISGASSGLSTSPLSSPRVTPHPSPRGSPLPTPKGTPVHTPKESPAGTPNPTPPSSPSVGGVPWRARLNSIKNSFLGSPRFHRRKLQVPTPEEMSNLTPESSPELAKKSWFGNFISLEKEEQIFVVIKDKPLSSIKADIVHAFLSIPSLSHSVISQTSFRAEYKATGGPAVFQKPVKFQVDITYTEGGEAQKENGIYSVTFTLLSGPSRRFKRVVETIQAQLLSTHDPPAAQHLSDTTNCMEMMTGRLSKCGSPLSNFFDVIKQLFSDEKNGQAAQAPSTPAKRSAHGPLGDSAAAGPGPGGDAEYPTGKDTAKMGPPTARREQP
Procedure, shortened: as §1

[19] = target: AMPK
Procedure, shortened: as §1

[20] = target: ULK2 (Homo sapiens, UniProt Q8IYT8)
Procedure, shortened: as §1

[21] = target: JNK1 (Homo sapiens, UniProt P45983)
Procedure, shortened: as §1

[22] = target: LKB1 (Homo sapiens, UniProt Q15831)
Procedure, shortened: as §1

[23] = target: MAPKAP-K3 (Homo sapiens, UniProt Q16644)
Procedure, shortened: as §1

[24] = target: T2, IRAK4 (Homo sapiens, UniProt Q9NWZ3)
T2 sequence (Q9NWZ3 1-460): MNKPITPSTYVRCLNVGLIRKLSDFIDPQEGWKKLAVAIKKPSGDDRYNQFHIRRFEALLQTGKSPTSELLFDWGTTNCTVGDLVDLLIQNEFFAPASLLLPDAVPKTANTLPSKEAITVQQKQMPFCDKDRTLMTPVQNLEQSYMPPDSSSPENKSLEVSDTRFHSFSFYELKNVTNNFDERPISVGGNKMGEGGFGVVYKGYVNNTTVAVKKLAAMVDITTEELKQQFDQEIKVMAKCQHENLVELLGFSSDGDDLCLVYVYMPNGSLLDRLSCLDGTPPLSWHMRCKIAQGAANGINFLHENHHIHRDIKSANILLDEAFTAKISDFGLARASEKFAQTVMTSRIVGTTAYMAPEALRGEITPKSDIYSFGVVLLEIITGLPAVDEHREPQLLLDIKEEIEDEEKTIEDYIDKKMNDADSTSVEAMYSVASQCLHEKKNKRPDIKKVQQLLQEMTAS
Procedure, shortened: as §1

[25] = target: MKK1 (Homo sapiens, UniProt Q02750)
Procedure, shortened: as §1

[26] = 1 μM, cross-referenced with screen data of ref 37, read-out: activity remaining after treatment

Chain of MSK1 (O75582 whole entry): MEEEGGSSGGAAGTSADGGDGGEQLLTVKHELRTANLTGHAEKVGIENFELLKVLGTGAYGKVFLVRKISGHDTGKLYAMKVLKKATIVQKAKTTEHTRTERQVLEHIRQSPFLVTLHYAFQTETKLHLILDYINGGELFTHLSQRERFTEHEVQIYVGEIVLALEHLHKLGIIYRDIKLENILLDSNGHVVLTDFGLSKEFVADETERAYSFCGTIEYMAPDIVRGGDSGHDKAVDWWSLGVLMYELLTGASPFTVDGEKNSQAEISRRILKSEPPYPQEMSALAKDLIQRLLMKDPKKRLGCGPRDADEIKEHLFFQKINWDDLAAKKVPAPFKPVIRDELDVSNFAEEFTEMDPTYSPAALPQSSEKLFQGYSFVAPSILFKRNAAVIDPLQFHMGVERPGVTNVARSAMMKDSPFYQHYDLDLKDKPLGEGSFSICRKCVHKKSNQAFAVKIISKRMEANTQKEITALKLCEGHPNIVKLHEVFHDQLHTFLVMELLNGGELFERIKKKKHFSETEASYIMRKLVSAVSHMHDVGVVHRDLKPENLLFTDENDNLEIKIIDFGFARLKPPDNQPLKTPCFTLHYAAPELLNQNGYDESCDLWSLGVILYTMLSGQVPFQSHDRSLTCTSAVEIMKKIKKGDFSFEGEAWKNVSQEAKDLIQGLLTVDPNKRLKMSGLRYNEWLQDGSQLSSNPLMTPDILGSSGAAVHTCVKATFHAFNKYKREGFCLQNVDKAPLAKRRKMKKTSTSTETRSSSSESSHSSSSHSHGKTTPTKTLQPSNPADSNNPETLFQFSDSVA
Chain of MINK1 (Q8N4C8 whole entry): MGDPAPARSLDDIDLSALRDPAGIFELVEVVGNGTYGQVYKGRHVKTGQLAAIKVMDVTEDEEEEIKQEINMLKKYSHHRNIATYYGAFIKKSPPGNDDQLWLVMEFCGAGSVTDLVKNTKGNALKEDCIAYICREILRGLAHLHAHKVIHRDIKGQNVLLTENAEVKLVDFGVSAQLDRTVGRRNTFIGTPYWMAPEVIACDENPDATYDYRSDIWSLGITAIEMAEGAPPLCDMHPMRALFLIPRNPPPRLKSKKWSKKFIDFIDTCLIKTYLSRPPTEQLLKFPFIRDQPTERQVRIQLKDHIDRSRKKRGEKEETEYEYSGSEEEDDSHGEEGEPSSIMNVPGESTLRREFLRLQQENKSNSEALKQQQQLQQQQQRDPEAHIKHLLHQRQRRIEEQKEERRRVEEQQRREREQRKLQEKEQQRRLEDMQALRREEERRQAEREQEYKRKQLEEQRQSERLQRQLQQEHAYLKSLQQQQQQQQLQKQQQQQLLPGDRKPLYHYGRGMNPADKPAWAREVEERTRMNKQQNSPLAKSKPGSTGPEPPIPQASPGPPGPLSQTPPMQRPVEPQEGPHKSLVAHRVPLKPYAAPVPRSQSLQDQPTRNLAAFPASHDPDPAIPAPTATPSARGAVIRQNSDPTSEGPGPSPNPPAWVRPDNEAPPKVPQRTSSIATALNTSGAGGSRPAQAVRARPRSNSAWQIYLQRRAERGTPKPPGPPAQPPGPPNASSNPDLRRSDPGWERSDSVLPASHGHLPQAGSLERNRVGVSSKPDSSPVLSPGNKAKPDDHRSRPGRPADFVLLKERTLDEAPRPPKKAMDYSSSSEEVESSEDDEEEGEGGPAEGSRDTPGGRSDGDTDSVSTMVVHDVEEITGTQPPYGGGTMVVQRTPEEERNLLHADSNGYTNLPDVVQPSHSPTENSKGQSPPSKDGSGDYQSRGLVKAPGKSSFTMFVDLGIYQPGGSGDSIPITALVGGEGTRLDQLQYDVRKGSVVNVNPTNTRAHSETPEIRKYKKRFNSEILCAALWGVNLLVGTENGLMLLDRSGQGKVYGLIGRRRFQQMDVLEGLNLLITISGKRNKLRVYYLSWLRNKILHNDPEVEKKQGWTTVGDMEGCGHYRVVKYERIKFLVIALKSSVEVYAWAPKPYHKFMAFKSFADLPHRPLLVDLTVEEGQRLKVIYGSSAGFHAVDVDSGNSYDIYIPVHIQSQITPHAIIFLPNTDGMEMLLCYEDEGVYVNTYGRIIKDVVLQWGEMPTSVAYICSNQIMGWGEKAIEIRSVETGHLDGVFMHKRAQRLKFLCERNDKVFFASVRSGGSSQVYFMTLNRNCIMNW
Chain of ABL (P00519 whole entry): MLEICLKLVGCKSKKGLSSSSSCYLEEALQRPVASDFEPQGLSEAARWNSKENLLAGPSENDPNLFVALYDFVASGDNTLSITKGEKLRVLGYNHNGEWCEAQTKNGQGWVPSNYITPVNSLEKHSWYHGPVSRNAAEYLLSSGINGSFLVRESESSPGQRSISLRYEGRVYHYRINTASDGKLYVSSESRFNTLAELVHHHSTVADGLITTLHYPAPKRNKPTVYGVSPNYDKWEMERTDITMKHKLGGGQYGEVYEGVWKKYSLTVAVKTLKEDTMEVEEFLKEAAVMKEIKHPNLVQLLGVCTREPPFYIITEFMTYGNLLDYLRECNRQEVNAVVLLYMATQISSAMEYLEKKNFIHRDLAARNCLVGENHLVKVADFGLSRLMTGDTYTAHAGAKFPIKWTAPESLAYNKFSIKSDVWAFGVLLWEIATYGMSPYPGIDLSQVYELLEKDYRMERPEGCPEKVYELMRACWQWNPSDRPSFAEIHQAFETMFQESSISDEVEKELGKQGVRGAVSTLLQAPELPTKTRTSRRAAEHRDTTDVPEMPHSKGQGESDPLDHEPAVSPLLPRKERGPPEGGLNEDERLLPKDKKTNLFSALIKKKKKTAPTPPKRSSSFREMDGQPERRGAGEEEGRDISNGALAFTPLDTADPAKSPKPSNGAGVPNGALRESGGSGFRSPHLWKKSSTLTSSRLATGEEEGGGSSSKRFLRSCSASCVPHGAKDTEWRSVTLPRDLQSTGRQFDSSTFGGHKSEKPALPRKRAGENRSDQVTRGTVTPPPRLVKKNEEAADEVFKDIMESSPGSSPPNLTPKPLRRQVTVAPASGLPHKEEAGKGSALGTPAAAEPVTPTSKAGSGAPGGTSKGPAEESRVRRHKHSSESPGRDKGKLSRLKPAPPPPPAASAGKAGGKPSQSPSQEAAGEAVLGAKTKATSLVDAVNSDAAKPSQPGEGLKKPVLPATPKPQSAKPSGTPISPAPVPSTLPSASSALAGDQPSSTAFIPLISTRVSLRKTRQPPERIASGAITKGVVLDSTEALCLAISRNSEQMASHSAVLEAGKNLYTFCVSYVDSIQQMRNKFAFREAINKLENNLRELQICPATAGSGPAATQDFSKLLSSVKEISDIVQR
Chain of MLK1 (P80192 whole entry): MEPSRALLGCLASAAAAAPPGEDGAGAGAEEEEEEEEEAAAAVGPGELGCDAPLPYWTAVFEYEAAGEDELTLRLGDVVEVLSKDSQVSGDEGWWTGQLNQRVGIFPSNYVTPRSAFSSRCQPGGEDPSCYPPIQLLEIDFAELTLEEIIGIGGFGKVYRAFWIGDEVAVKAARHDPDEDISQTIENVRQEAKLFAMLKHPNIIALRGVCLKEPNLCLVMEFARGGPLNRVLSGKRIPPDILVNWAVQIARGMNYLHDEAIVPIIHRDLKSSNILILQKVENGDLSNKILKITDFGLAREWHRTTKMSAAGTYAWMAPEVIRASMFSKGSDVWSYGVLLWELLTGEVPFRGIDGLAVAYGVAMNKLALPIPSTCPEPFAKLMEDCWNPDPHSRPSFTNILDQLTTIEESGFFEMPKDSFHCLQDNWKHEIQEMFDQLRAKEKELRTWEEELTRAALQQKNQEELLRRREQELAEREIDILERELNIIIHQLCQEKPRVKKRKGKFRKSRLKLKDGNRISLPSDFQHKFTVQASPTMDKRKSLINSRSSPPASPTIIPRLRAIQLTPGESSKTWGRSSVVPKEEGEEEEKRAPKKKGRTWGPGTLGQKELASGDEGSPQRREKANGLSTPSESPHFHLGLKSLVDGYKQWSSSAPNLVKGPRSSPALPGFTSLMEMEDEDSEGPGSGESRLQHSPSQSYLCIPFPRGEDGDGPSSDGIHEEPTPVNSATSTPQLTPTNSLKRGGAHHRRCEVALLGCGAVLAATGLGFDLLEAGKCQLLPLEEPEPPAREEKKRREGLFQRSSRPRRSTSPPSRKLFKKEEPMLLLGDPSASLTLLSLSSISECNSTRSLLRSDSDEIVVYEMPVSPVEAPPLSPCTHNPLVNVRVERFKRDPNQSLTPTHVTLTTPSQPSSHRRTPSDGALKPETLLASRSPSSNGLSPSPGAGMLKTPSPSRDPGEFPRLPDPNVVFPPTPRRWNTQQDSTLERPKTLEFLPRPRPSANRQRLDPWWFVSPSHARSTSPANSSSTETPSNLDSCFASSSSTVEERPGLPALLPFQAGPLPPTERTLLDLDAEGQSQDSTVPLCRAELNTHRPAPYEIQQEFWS
Chain of JNK3 (P53779 whole entry): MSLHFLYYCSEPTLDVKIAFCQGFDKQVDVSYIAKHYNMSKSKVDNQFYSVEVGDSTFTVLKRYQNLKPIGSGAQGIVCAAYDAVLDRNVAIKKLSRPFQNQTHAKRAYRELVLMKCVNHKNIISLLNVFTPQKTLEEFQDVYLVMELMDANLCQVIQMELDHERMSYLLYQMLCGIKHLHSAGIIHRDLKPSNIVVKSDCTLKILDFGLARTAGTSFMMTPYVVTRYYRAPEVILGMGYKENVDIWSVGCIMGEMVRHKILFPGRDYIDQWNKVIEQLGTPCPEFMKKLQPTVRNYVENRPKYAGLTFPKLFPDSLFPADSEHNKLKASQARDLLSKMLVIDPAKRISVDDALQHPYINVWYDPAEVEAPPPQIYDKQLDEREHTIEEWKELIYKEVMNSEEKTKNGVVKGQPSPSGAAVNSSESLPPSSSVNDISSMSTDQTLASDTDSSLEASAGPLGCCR

Row | Structure (SMILES) | remaining activity at 0.1 µM [1] | remaining activity at 0.1 µM [2] | remaining activity at 0.1 µM [3] | remaining activity at 0.1 µM [4] | remaining activity at 0.1 µM [5] | remaining activity at 0.1 µM [6] | remaining activity at 0.1 µM [7] | remaining activity at 0.1 µM [8] | remaining activity at 0.1 µM [9] | remaining activity at 0.1 µM [10] | remaining activity at 0.1 µM [11] | remaining activity at 0.1 µM [12] | remaining activity at 0.1 µM [13] | remaining activity at 0.1 µM [14] | remaining activity at 0.1 µM [15] | remaining activity at 0.1 µM [16] | remaining activity at 0.1 µM [17] | remaining activity at 0.1 µM [18] | inhibition of kinase ([19]; 0.1 μM) | remaining activity at 0.1 µM [20] | other results
1 | CC1=C(C#N)C(c2ccc3c(c2)c(NC(=O)c2ccccc2C)nn3C)C(C#N)=C(C)N1 [BAY-974, N-[5-(3,5-dicyano-2,6-dimethyl-1,4-dihydropyridin-4-yl)-1-methylindazol-3-yl]-2-methylbenzamide] | 81% | 105% | 94% | 79% | 95% | 127% | 121% | 82% | 104% | 99% | 110% | 100% | 81% | 107% | 91% | 90% | 59% | 112% | almost no effect | 60% | Kinase activity remaining (%) ([19]; 0.1 μM): 98%; remaining activity at 0.1 µM [21]: 106%; remaining activity at 0.1 µM [22]: 104%; remaining activity at 0.1 µM [23]: 81%; remaining activity at 0.1 µM [24]: 92%; remaining activity at 0.1 µM [25]: 100%
2 | CCc1ccccc1C(=O)Nc1n[nH]c2c(C)c(F)c(C3C(C#N)=C(C)N(C)C(C)=C3C#N)cc12 [BAY-3827, N-[5-(3,5-dicyano-1,2,6-trimethyl-4H-pyridin-4-yl)-6-fluoro-7-methyl-1H-indazol-3-yl]-2-ethylbenzamide] | 94% | 135% | 96% | ≤ 50% | 95% | 97% | 122% | 98% | 88% | 77% | 90% | 56% | 55% | 91% | 89% | 89% | 107% | 82% | > 90% | 96% | inhibition at 0.1 µM [4]: ~60%; remaining activity at 1 µM [12, 26]: ≤ 50%; remaining activity at 1 µM ([17]; 1 μM, ABL1, cross-referenced with screen data of ref 37, read-out: activity remaining after treatment): ≥ 99%; remaining activity at 1 µM [18, 26]: ≤ 50%; activity remaining after treatment ([19]; 1 μM, cross-referenced with screen data of ref 37): ≤ 50%; remaining activity at 0.1 µM [21]: 94%; remaining activity at 0.1 µM [22]: 97%; remaining activity at 0.1 µM [23]: 101%; remaining activity at 0.1 µM [24]: 111%; remaining activity at 1 µM [24, 26]: ≥ 99%; remaining activity at 0.1 µM [25]: 100%
